Results: patent US9834558B2, “Substituted bridged urea analogs as sirtuin modulators” (GLAXOSMITHKLINE LLC, priority 2013, dated 2017)
Where two headings read alike, the source gives them in different places.

Target: T1, SIRT1 (Homo sapiens, UniProt Q96EB6)
T1 sequence (Q96EB6 1-747): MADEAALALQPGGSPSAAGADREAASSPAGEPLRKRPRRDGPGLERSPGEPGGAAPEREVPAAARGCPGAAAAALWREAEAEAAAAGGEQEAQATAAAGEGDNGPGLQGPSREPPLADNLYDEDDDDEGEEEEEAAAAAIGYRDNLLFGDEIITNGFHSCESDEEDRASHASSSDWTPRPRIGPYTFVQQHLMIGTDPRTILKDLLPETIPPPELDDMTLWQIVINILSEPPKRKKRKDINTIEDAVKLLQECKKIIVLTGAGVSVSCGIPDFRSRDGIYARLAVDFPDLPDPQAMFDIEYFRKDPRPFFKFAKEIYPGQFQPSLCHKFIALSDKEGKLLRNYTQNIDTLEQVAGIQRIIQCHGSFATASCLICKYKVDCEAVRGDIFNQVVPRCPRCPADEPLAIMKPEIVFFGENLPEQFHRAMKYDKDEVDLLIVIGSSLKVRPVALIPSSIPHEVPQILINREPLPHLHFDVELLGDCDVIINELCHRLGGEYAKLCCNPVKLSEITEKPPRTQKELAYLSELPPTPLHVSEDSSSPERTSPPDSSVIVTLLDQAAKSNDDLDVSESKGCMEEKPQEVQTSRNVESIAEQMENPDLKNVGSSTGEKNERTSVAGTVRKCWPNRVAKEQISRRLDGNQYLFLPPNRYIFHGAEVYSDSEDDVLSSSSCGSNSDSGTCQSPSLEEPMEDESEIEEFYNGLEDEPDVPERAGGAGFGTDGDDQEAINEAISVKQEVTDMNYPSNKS
Test: Trp mass spectrometry assay of SIRT1 activation
Assay type: biochemical
Conditions: for TRP Activity (EC1.5): EC1.5 = concentration that results in 150% activation of SIRT1
Text: Mass spectrometry based assays were used to identify modulators of SIRT1 activity. […] The peptide was labeled with the fluorophore STMR (excitation 540 nm/emission 580 nm) at the C-terminus. The sequence of the peptide substrate was based on p53 with several modifications. In addition, the methionine residue naturally present in the sequence was replaced with the norleucine because the methionine may be susceptible to oxidation during synthesis and purification. The Trp based assay utilized a peptide having an amino acid residues as follows: Ac-R-H-K-K(Ac)-W-NH2 (SEQ ID NO: 2).
The Trp mass spectrometry assay was conducted as follows. 0.5 μM peptide substrate and 120 μM βNAD^+ were incubated with 10 nM SIRT1 for 25 minutes at 25° C. in a reaction buffer (50 mM HEPES pH 7.5, […], 1 mM DTT, 0.05% BSA). The SIRT1 protein was obtained by cloning the SirT1 gene into a T7-promoter containing vector, which was then expressed in BL21(DE3) bacterial cells and purified as described in further detail below. Test compound was added at varying concentrations to this reaction mixture and the resulting reactions were monitored. After the 25 minute incubation with SIRT1, 10 μL of 10% formic acid was added to stop the reaction. The resulting reactions were sealed and frozen for later mass spec analysis. The relative SIRT1 activity was then determined by measuring the amount of O-acetyl-ADP-ribose (OAADPR) formed (or, alternatively, the amount of deacetylated Trp peptide generated) by the NAD-dependent sirtuin deacetylation reaction in the presence of varying concentrations of the test compound versus control reactions lacking the test compound. The degree to which the test agent activated deacetylation by SIRT1 was expressed as EC1.5 (i.e., the concentration of compound required to increase SIRT1 activity by 50% over the control lacking test compound), and Percent Maximum Activation (i.e., the maximum activity relative to control (100%) obtained for the test compound).
This time point was the same as that used for test compounds and, within the linear range, the endpoint represents a change in velocity.
For the above assay, SIRT1 protein was expressed and purified as follows. The SirT1 gene was cloned into a T7-promoter containing vector and transformed into BL21(DE3). The protein was expressed by induction with 1 mM IPTG as an N-terminal His-tag fusion protein at 18° C. overnight and harvested at 30,000×g. Cells were lysed with lysozyme in lysis buffer (50 mM Tris-HCl, 2 mM Tris[2-carboxyethyl]phosphine (TCEP), 10 μM ZnCl2, 200 mM NaCl) and further treated with sonication for 10 min for complete lysis. The protein was purified over a Ni-NTA column (Amersham) and fractions containing pure protein were pooled, concentrated and run over a sizing column (Sephadex S200 26/60 global). The peak containing soluble protein was collected and run on an Ion-exchange column (MonoQ). Gradient elution (200 mM-500 mM NaCl) yielded pure protein. This protein was concentrated and dialyzed against dialysis buffer (20 mM Tris-HCl, 2 mM TCEP) overnight. The protein was aliquoted and frozen at −80° C. until further use.
“NT” means not tested; “ND” means not determinable.

[1] = Trp mass spectrometry assay, concentration of test compound giving 150% activation of SIRT1
[2] = Trp mass spectrometry assay, percent maximum fold activation of SIRT1, read-out: Tryp % Fold Act
[3] = concentration giving 150% activation of SIRT1, Trp peptide substrate
[4] = Trp peptide assay, maximum activity relative to control (100%), read-out: TRP MAX RESP (percent maximum fold activation)
[5] = Trp mass spectrometry assay, EC1.5 = concentration of test compound that results in 150% activation of SIRT1

TRP Activity (EC1.5) (Trp peptide assay) | Emax [4] | Structure (SMILES) | further results
– | – | C[C@@H]1CCN(C)c2ccc(-c3cccc(CC(O)CO)c3)nc2N1C(=O)Nc1ccc(F)cn1 (stereo partly shown) [Example 356] | Tryp AVG EC1.5 (μM) [1]: A (A (EC1.5<1 μM)); Emax [2]: > 150%
– | – | O=C(Nc1cnccn1)N1c2nc(-c3cc(C(F)(F)F)cc(C(F)(F)F)c3)ccc2N2CC[C@H]1C2 [Example 363] | Tryp AVG EC1.5 (μM) [1]: B (B (EC1.5 1-25 μM)); Emax [2]: > 150%
– | – | O=C(Nc1cnccn1)N1c2nc(-c3cncc(Cl)c3)ccc2N2CCC[C@H]1C2 [Example 417] | Tryp AVG EC1.5 (μM) [1]: A (A (EC1.5<1 μM))
– | – | O=C(Nc1cccc(-c2cnco2)c1)N1c2nc(-c3cncc(C(F)(F)F)c3)ccc2N2C[C@@H](O)[C@H]1C2 [Example 709] | Tryp AVG EC1.5 (μM) [3]: A (A (EC1.5<1 μM))
A (A (EC1.5<1 μM)) | > 150% | O=C(Nc1ccnc(OC[C@@H](O)CO)c1)N1c2nc(-c3cccc(C(F)(F)F)c3)ccc2N2CC[C@H]1C2 [(9S)-N-{2-[(2S)-2,3-dihydroxypropoxy]pyridin-4-yl}-5-[3-(trifluoromethyl)phenyl]-1,6,8-triazatricyclo[7.2.1.0 {2,7}]dodeca-2,4,6-triene-8-carboxamide] | –
– | – | O=C(Nc1ccncc1)N1c2nc(-c3cccc(C(F)(F)F)c3)ccc2N2CCC[C@H]1C2 [Example 821] | Tryp AVG EC1.5 (μM) [3]: A (A (EC1.5<1 μM))
– | – | Cc1nn(C)cc1-c1ccc2c(n1)N(C(=O)Nc1cccnc1)[C@H]1CCN2C1 [Example 488] | Tryp AVG EC1.5 (μM) [5]: B (B (EC1.5 1-25 μM))
A (A (EC1.5<1 μM)) | > 150% | O=C(Nc1cnccn1)N1c2cc(N3CCCC(C(F)(F)F)C3)ccc2N2CCC[C@H]1C2 (stereo partly shown) | –
– | – | O=C(Nc1nnc(-c2ccncc2)s1)N1c2nc(-c3cccc(C(F)(F)F)c3)ccc2N2CC[C@H]1C2 [Example 733] | Tryp AVG EC1.5 (μM) [3]: A (A (EC1.5<1 μM))
A (A (EC1.5<1 μM)) | > 150% | O=C(Nc1ccnc(O[C@@H]2CCOC2)n1)N1c2nc(-c3cccc(C(F)(F)F)c3)ccc2N2CC[C@H]1C2 [(9S)-N-{2-[(3R)-oxolan-3-yloxy]pyrimidin-4-yl}-5-[3-(trifluoromethyl)phenyl]-1,6,8-triazatricyclo[7.2.1.0 {2,7}]dodeca-2(7),3,5-triene-8-carboxamide] | –
– | – | Cc1cncc(-c2ccc3c(n2)N(C(=O)Nc2nc(C)c(C)s2)[C@H]2CCCN3C2)c1 [Example 507] | Tryp AVG EC1.5 (μM) [5]: A (A (EC1.5<1 μM))
– | – | CCN(CC)C(=O)N1c2nc(-c3cccc(C(F)(F)F)c3)ccc2N2CC[C@H]1C2 [Example 52] | Tryp AVG EC1.5 (μM) (Trp peptide substrate, concentration giving 150% activation of SIRT1): C (C (EC1.5>25 μM))
– | – | NCc1cn(-c2cccc(NC(=O)N3c4nc(-c5cccc(C(F)(F)F)c5)ccc4N4CC[C@H]3C4)c2)nn1 [Example 606] | Tryp AVG EC1.5 (μM) [5]: A (A (EC1.5<1 μM))
– | – | O=C1CN2C[C@H]1N(C(=O)Nc1cccc(-c3cnco3)c1)c1nc(-c3cccc(C(F)(F)F)c3)ccc12 [Example 692] | Tryp AVG EC1.5 (μM) [3]: A (A (EC1.5<1 μM))
A (A (EC1.5<1 μM)) | > 150% | O=C(Nc1ccccn1)N1c2nc(N3CCC[C@@H]3C(F)(F)F)ccc2N2CCC[C@H]1C2 [(9S)-N-(pyridin-2-yl)-5-[(2R)-2-(trifluoromethyl)pyrrolidin-1-yl]-1,6,8-triazatricyclo[7.3.1.0 {2,7}]trideca-2(7),3,5-triene-8-carboxamide] | –
B (B (EC1.5 1-25 μM)) | > 150% | Cc1ccc(-c2ccc3c(n2)N(C(=O)Nc2ccnc(O[C@H]4CCOC4)n2)[C@H]2CCN3C2)cn1 [(9S)-5-(6-methylpyridin-3-yl)-N-{2-[(3S)-oxolan-3-yloxy]pyrimidin-4-yl}-1,6,8-triazatricyclo[7.2.1.0 {2,7}]dodeca-2,4,6-triene-8-carboxamide] | –
B (B (EC1.5 1-25 μM)) | > 150% | O=C(NC1CCCOC1)c1ccc2c(n1)N(C(=O)Nc1ccccn1)[C@H]1CCN2C1 (stereo partly drawn) [(9S)-5-N-(oxan-3-yl)-8-N-(pyridin-2-yl)-1,6,8-triazatricyclo[7.2.1.0 {2,7}]dodeca-2(7),3,5-triene-5,8-dicarboxamide] | –
– | – | CC(=O)c1ccc(NC(=O)N2c3nc(-c4cccc(C(F)(F)F)c4)ccc3N3CC[C@H]2C3)cc1 [Example 668] | Tryp AVG EC1.5 (μM) [3]: A (A (EC1.5<1 μM))
B (B (EC1.5 1-25 μM)) | > 150% | CN(C)c1cc(-c2ccc3c(n2)N(C(=O)Nc2cnccn2)[C@H]2CCN3C2)ccn1 [(9S)-5-[2-(dimethylamino)pyridin-4-yl]-N-(pyrazin-2-yl)-1,6,8-triazatricyclo[7.2.1.0 {2,7}]dodeca-2(7),3,5-triene-8-carboxamide] | –
A (A (EC1.5<1 μM)) | > 150% | CC(C)n1cc(-c2ccc3c(n2)N(C(=O)Nc2cnccn2)[C@H]2CCN3C2)cn1 [(9S)-5-[1-(propan-2-yl)-1H-pyrazol-4-yl]-N-(pyrazin-2-yl)-1,6,8-triazatricyclo[7.2.1.0 {2,7}]dodeca-2,4,6-triene-8-carboxamide] | –
– | – | N=C(NCCN)c1ccc(NC(=O)N2c3nc(-c4cccc(C(F)(F)F)c4)ccc3N3CCC[C@H]2C3)cc1 [Example 792] | Tryp AVG EC1.5 (μM) [3]: A (A (EC1.5<1 μM))
– | – | C#CCNc1nccc(NC(=O)N2c3nc(-c4ccc(C5(C(F)(F)F)N=N5)cc4)ccc3N3CC[C@H]2C3)n1 [Example 805] | Tryp AVG EC1.5 (μM) [3]: B (B (EC1.5 1-25 μM))
B (B (EC1.5 1-25 μM)) | > 150% | Cc1cncc(NC(=O)N2c3nc(-c4ccnc(C)c4)ccc3N3CC[C@H]2C3)c1 [(9S)-N-(5-methylpyridin-3-yl)-5-(2-methylpyridin-4-yl)-1,6,8-triazatricyclo[7.2.1.0 {2,7}]dodeca-2(7),3,5-triene-8-carboxamide] | –
– | – | O=C(Nc1ccccn1)N1c2nc(-c3cccc(N4CCOCC4)c3)ccc2N2CCC[C@H]1C2 [Example 536] | Tryp AVG EC1.5 (μM) [5]: B (B (EC1.5 1-25 μM))
– | – | O=C(Nc1cccc(C(F)(F)F)c1)N1c2nc(-c3cccc(C(F)(F)F)c3)ccc2N2CC[C@H]1C2 [Example 617] | Tryp AVG EC1.5 (μM) [5]: A (A (EC1.5<1 μM))
A (A (EC1.5<1 μM)) | > 150% | O=C(Nc1ccccn1)N1c2nc(N3CCC(C(F)(F)F)CC3)ccc2N2CC[C@H]1C2 [(9S)-N-(pyridin-2-yl)-5-[4-(trifluoromethyl)piperidin-1-yl]-1,6,8-triazatricyclo[7.2.1.0 {2,7}]dodeca-2,4,6-triene-8-carboxamide] | –
– | – | O=C(NCCCc1ccncc1)N1c2nc(-c3cccc(C(F)(F)F)c3)ccc2N2CC[C@H]1C2 [Example 633] | Tryp AVG EC1.5 (μM) [3]: B (B (EC1.5 1-25 μM))
– | – | O=C(Nc1ccccn1)N1c2nc(-c3ccnc(N4CC[C@@H](F)C4)c3)ccc2N2CC[C@H]1C2 [Example 448] | Tryp AVG EC1.5 (μM) [5]: B (B (EC1.5 1-25 μM))
